Measurements taken from patent US20210254014A1, “GROWTH INHIBITOR” (Kyoto University, priority 2018, published 2021).

How the values were obtained:
grafts = experiment: Autopsy findings and immunohistological staining of grafts excised 5 weeks after transplantation; type: in vivo, mice; settings: cell population treated with 1 μM for 12 days, compared with untreated cell population
Excerpt: The insulin-producing cell population obtained by culture in the medium for induction of differentiation containing CAS192705-79-6 in the preceding section (1) or an insulin-producing cell population obtained by culture in a medium for induction of differentiation free from CAS192705-79-6 as a comparative example was transplanted beneath the capsule of the kidney using immunodeficient NOD/SCID mice having streptozotocin-induced insulin-deficient diabetes mellitus. For follow-up after the transplantation, human C-peptide concentrations in blood and blood glucose levels were measured. The grafts were excised 5 weeks after the transplantation.
The excised grafts were fixed and dehydrated, and then, frozen sections were prepared and subjected to immunohistological staining in order to evaluate unintended cells. The cells of interest that could be expected to maturate into pancreatic islet cells in vivo were evaluated using insulin positivity (and NKX6.1 positivity) or glucagon positivity as an indicator, and unintended cells having the possibility of adversely affecting long-term graft survival of the cells of interest were evaluated using Ki67 positivity as an indicator.

Ki67-positive cells [1] = experiment: Ki67-positive cells by flow cytometry in the insulin-producing cell population obtained by treating an endocrine progenitor cell population for 12 days (Example 1); type: cell-based, human; settings: 1 μM, mean ± standard deviation of five experiments, absent control 10.78 ± 4.09%
Protocol: The induction of differentiation of the endocrine progenitor cell population into an insulin-producing cell population was carried out according to the above step 6) or the previous report (Nature Biotechnology 2014; 32: 1121-1133).
The endocrine progenitor cell population obtained by the induction of differentiation from iPS cells were cultured for 12 days in a medium for induction of differentiation (Improved MEM/1% B27/Penicillin Streptomycin) containing differentiation factors (ALK5 inhibitor II, T3, LDN, γ-secretase inhibitor RO, and ascorbic acid) and an FGF receptor 1 inhibitor (CAS192705-79-6) to obtain an insulin-producing cell population. The number of Ki67-positive cells in the obtained cell population was evaluated by flow cytometry.

rat myoblasts [2] = settings: cited from earlier work
Ki67-positive cells [3] = experiment: Ki67-positive cells by flow cytometry, timing of treatment during insulin-producing cell production (Example 2); type: cell-based; settings: 1 μM, mean ± SD of three experiments, absent control 7.57 ± 1.05%
Protocol: (§1) 1) An endocrine progenitor cell population obtained by the induction of differentiation from iPS cells were cultured for 11 days in a medium for induction of differentiation (Improved MEM/1% B27/Penicillin Streptomycin) containing differentiation factors (ALK5 inhibitor II, T3, LDN, γ-secretase inhibitor RO, and ascorbic acid) and an FGF receptor 1 inhibitor (CAS192705-79-6) to obtain an insulin-producing cell population.
(§2) 2) An endocrine progenitor cell population obtained by the induction of differentiation from iPS cells were cultured for 4 days in a medium for induction of differentiation (Improved MEM/1% B27/Penicillin Streptomycin) containing differentiation factors (ALK5 inhibitor II, T3, LDN, γ-secretase inhibitor RO, and ascorbic acid) and thereby induced to differentiate into an insulin-producing cell population. Subsequently, an FGF receptor 1 inhibitor (CAS192705-79-6, 1 μM) was added to a medium for induction of differentiation (Improved MEM/1% B27/Penicillin Streptomycin) containing differentiation factors (ALK5 inhibitor II, T3, LDN, γ-secretase inhibitor RO, and ascorbic acid), and the cells were cultured therein for 7 days.
as §2, with “3) An” for “2) An”, “for 7” for “for 4”, “for 4” for “for 7”, “days. […]” for “days.”
The number of Ki67-positive cells in the cell population obtained by each of the above methods 1), 2), and 3) was counted by flow cytometry to determine the proportion of Ki67-positive cells in each cell population.

[4] = test system: immunodeficient NOD/SCID mice having streptozotocin-induced insulin-deficient diabetes mellitus; experiment: Transplantation of the FGF receptor 1 inhibitor-treated insulin-producing cell population beneath the kidney capsule; human C-peptide in blood and blood glucose; type: in vivo; settings: cell population treated with 1 μM for 12 days
Protocol: In the description below, the preparation of mice and the transplantation of cells were performed in accordance with known methods.
The insulin-producing cell population obtained by culture in the medium for induction of differentiation containing CAS192705-79-6 in the preceding section (1) or an insulin-producing cell population obtained by culture in a medium for induction of differentiation free from CAS192705-79-6 as a comparative example was transplanted beneath the capsule of the kidney using immunodeficient NOD/SCID mice having streptozotocin-induced insulin-deficient diabetes mellitus. For follow-up after the transplantation, human C-peptide concentrations in blood and blood glucose levels were measured. […]

Ki67-positive cells [5] = experiment: Ki67-positive cells by flow cytometry after 4 days of treatment with FGFR1 inhibitors at three concentrations (Example 3); type: cell-based
Protocol: The number of Ki67-positive cells in the obtained cell population was evaluated by flow cytometry.

[6] = test system: insulin-positive (and NKX6.1-positive) cells; experiment: Insulin-positive (and NKX6.1-positive) cells by flow cytometry, timing of treatment (Example 2); type: cell-based; settings: 1 μM, relative value, untreated control defined as 100%
Protocol: as §1, §2
3) An endocrine progenitor cell population obtained by the induction of differentiation from iPS cells were cultured for 7 days in a medium for induction of differentiation (Improved MEM/1% B27/Penicillin Streptomycin) containing differentiation factors (ALK5 inhibitor II, T3, LDN, γ-secretase inhibitor RO, and ascorbic acid) and thereby induced to differentiate into an insulin-producing cell population. […]
The number of insulin-positive (and NKX6.1-positive) cells in the cell population obtained by each of the above methods 1), 2), and 3) was counted by flow cytometry. The proportion of insulin-positive (and NKX6.1-positive) cells in each method was calculated as a relative value when the number of insulin-positive (and NKX6.1-positive) cells in the control cell population obtained by the above method 4) was defined as 100%.

[7] = test system: endocrine progenitor cells derived from human iPS cells; settings: cited from earlier work
rat myoblasts [8] = settings: cited from earlier work; remark: listed apart in the source
[9] = test system: human placental blood vessels; settings: cited from earlier work
[10] = Table 4, 0.3 μM, absent control 4.13%
[11] = Table 4, 1 μM, absent control 4.13%

## COc1cc(OC)cc(-c2cc3cnc(N)nc3nc2NC(=O)NC(C)(C)C)c1 [CAS192705-79-6, 1-[2-amino-6-(3,5-dimethoxyphenyl)-pyrido(2,3-d)pyrimidin-7-yl]-3-tert-butylurea]
grafts
  Bloatedness of the grafts: drastic inhibition of bloatedness of the grafts
Ki67-positive cells [1]
  Content percentage of Ki67-positive cells (before transplantation): 0.98 ± 0.29%
Rat myoblasts [2]
  Cell proliferation caused by bFGF stimulation: inhibit cell proliferation caused by bFGF stimulation
Ki67-positive cells [3]; for last 4 days
  Proportion of Ki67-positive cells: 0.57 ± 0.15%
Ki67-positive cells [3]; for last 7 days
  Proportion of Ki67-positive cells: 0.47 ± 0.15%
Ki67-positive cells [3]; from start (11 days)
  Proportion of Ki67-positive cells: 0.57 ± 0.35%
[4]; transplanted beneath the kidney capsule, untreated cells 1440 ± 573
  Human C-peptide concentration in blood 4 months after transplantation: 1486 ± 305 pM
[4]; 4 months later, untreated cells 85 ± 16
  Blood glucose level 4 months after transplantation: 86 ± 22 mg/dL
[4]; at time of transplantation (baseline)
  Blood glucose level at time of transplantation: 516 ± 33 mg/dL
Ki67-positive cells [5]; Table 4, 0.1 μM, absent control 4.13%
  Proportion of Ki67-positive cells (%): 2.15%;
Ki67-positive cells [5]; [10]
  Proportion of Ki67-positive cells (%): 0.99%;
Ki67-positive cells [5]; [11]
  Proportion of Ki67-positive cells (%): 0.7%;
[6]; for last 4 days
  Proportion of insulin-positive (and NKX6.1-positive) cells: 91 ± 16%
[6]; for last 7 days
  Proportion of insulin-positive (and NKX6.1-positive) cells: 88 ± 13%
[6]; from start (11 days)
  Proportion of insulin-positive (and NKX6.1-positive) cells: 45 ± 15%
[7]
  Differentiation of endocrine progenitor cells: can be promoted
Rat myoblasts [8]
  Cell proliferation caused by PDGE stimulation: not inhibit cell proliferation caused by PDGE stimulation
[9]
  Elongation of microvessels: inhibit the elongation of microvessels

## COCCCOc1ccnc(C[S+]([O-])c2nc3ccccc3[nH]2)c1C (stereo not drawn) [E-3810]
Ki67-positive cells [5]; [10]
  Proportion of Ki67-positive cells (%): 2.74%;
Ki67-positive cells [5]; [11]
  Proportion of Ki67-positive cells (%): 1.51%;
Ki67-positive cells [5]; Table 4, 10 μM, absent control 4.13%
  Proportion of Ki67-positive cells (%): 0.67%;

## CCN(CC)CCCCNc1ncc2cc(-c3cc(OC)cc(OC)c3)c(NC(=O)NC(C)(C)C)nc2n1 [PD-173074]
Ki67-positive cells [5]; Table 5, 0.1 μM, absent control 2.7%
  Proportion of Ki67-positive cells (%): 0.7%;
Ki67-positive cells [5]; Table 5, 1 μM, absent control 2.7%
  Proportion of Ki67-positive cells (%): 0.7%;
Ki67-positive cells [5]; Table 5, 5 μM, absent control 2.7%
  Proportion of Ki67-positive cells (%): 0.5%;
